From patent publication US6008196A, “Perfluoroalkyl ketone inhibitors of elastase and processes for making the same” (Hoechst Marion Roussel, Inc., priority 1996, dated 1999) come the findings set out here.

SMILES strings stand for the structures.

The experiment concerns the target T1, Human Neutrophil Elastase (Homo sapiens, UniProt P08246).
T1 construct: Enzyme is purified from human sputum, although recently it has become commercially available; from tissue; host or cells: human sputum
T1 sequence (P08246 30-247 limits assumed): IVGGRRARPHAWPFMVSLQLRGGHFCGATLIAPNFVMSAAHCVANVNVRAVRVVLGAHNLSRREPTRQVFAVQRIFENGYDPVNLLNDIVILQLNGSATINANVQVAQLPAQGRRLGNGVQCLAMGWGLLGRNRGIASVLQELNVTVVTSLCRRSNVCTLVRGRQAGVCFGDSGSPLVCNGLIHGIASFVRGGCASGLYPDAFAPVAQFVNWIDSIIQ
Nature of the experiment: Human neutrophil elastase assayed in vitro with N-MeOSuc-Ala-Ala-Pro-Val-p-nitroanilide as substrate. Type of experiment: biochemical. The note with it: enzyme purified from human sputum. The method, then:
Human neutrophil elastase is assayed in vitro using N-MeOSuc-Ala-Ala-Pro-Val-p-nitroanilide, available commercially, as substrate. […] Enzyme is purified from human sputum, although recently it has become commercially available. Kinetic characterization of immediate inhibitors is by means of the Dixon plot, whereas the characterization of slow- and/or tight-binding inhibitors used data analysis techniques reviewed by Williams and Morrison. The synthesis and analytical use of a highly sensitive and convenient substrate of elastase is described in J. Bieth, B. Spiess and C. […] For the purposes of this table, MCBz refers to 4-(4-morpholinylcarbonyl)benzoyl and Pyr refers to 3-(3-pyridyl)propanoyl.
Take `CC(C)C(NC(=O)[C@@H]1CCCN1C(=O)[C@@H](NC(=O)OC(C)(C)C)C(C)C)C(=O)C(F)(F)C(F)(F)C(F)(F)C(F)(F)F` (stereo partly drawn) [Boc--Val--Pro--Val--CF2 CF2 CF2 CF3, N-[(1,1-dimethylethoxy)carbonyl]-L-valyl-N'-[3,3,4,4,5,5,6,6,6-nonafluoro-1-(1-methylethyl)-2-oxohexyl]-L-prolinamide]: affinity was put at a Ki of 590 nM.
Next, `CC(C)C(NC(=O)[C@@H]1CCCN1C(=O)[C@@H](NC(=O)OC(C)(C)C)C(C)C)C(=O)C(F)(F)C(F)(F)C(F)(F)F` (stereo partly drawn) [Boc--Val--Pro--Val--CF2 CF2 CF3, N-[(1,1-dimethylethoxy)carbonyl]-L-valyl-N'-[3,3,4,4,5,5,5-heptafluoro-1-(1-methylethyl)-2-oxopentyl]-L-prolinamide]: 490 nM.
The figure for `CC(C)C(NC(=O)[C@@H]1CCCN1C(=O)[C@@H](NC(=O)c1ccc(C(=O)N2CCOCC2)cc1)C(C)C)C(=O)C(F)(F)C(F)(F)C(F)(F)F` (stereo partly drawn) [MCBz--Val--Pro--Val--CF2 CF2 CF3, N-[4-(4-morpholinylcarbonyl)benzoyl]-L-valyl-N'-[3,3,4,4,5,5,5-heptafluoro-1-(1-methylethyl)-2-oxopentyl]-L-prolinamide] is 18 nM.

As usually defined, the Ki is a measure of affinity in units of concentration, obtained from inhibition or displacement. A higher Ki goes with a looser hold on the target.
